Patent US20240272171A1, “Methods for Identification of Exchangeable MHC Binding Peptides and Methods of Use Thereof” (PhenomeX Inc., priority 2020, published 2024)

How the values were obtained:
HLA-A*02:01 [1] = target: T1, HLA-A*02:01 (Homo sapiens, UniProt P04439, D140Y/D185E/D98H/E176V/E277Q/G131W/G231S/I119V/I121R/I166T/I218V/L300P/L318F/N151K/N90K/P208A/P217A/Q86G/Q94H/R138H/R169H/T345S); test: Candidate in-place peptide exchange testing (loss of FITC signal, flow cytometry); format: binding; conditions: for exchange efficiency: FITC in-place peptide, 1 micromolar pHLA, 20 micromolar incoming peptide LMYAKRAFV, 10 mM GlyCha, room temperature, 4 hour; for suitability as in-place peptide (affinity and exchangeability): HLA-A*02:01, FIG. 29
Excerpt: Candidate peptides with a FITC-modified Lysine at Position 4 or 5 shown in Table 6 were purchased from a peptide manufacturer (Genscript). The fluorescent peptides were loaded into recombinant, biotinylated HLA-A*02:01 by a contract manufacturer (Biolegend). […] The peptide-HLA (pHLA) concentration in the reactions was 1 micromolar. The incoming peptide concentration was 20 micromolar.
For the incoming peptide, the peptide sequence […] […] This may be used as a model for candidate antigenic peptides, which need to displace an in-place peptide stabilizing the MHC (e.g., loaded into the MHC complex), in methods of discovering antigenic peptides and methods of activating lymphocytes as described throughout the specification.
After four hours, exchanged, unexchanged and non-fluorescent biotinylated HLA complexes were loaded onto Streptavidin coated capture beads. The HLA complex coated beads were analyzed for FITC Fluorescence on a Flow Cytometer.

HLA-A*02:01 [2] = target: T1, HLA-A*02:01; test: Peptide switching on peptide-HLA-A*02:01 complex with DNP-labelled initial peptide (Example 21); format: binding
Protocol: To test binding of Immunogenic and Non-Immunogenic peptides to an MHC Class I complex, a peptide-HLA-A*02:01 complex with an initial peptide [sequence] […] The initial peptide included a dinitrophenyl (DNP) moiety conjugated to the lysine at position 5. Two peptide antigens were then tested for their ability to bind to the MHC Class I complex: [sequence] […] The peptides were resuspended in DMSO to 5 mg/mL. The peptides were then further diluted ten-fold in PBS. To set up 0.05 mL peptide switching reactions, 20 micromolar [sequence] […] In addition, a control peptide switching reaction using the peptide [sequence] […]
Samples of unswitched peptide-MHC and switched peptide-MHC were then captured on Streptavidin-coated DynaBeads (ThermoFisher). […] The peptide-MHC beads were then stored at 4° C. until they were analyzed for peptide exchange.
To quantify peptide exchange, a FITC-conjugated anti-DNP antibody specific for the DNP-conjugated initial peptide was added to a sample of each captured peptide-MHC. […] The staining for pre-assembled peptide and intact pHLA complexes were detected by Flow Cytometry on a FACSCelesta with High-Throughput Sampler (BD Biosciences). […] Approximately 5,000 bead events were recorded for each sample. The Median Fluorescence Intensity (MFI) in the APC and FITC channels of each sample was then recorded. […]
HLA-A*02:01 [3] = target: T1, HLA-A*02:01; test: Peptide binding and stability under culture conditions (Example 22); conditions: beads in T Cell Culture Media at 37° C.; W6/32 antibody MFI, exponential decay fit
Protocol: To assess the stability of the pMHC Class I-peptide antigen complexes under the conditions that are used to culture T Cells, pMHC Class I complexes were first bound to beads. Biotinylated HLA-A*02:01 complexes loaded with either […] (SEQ ID NO: 5) or […] (SEQ ID NO: 6) peptides were diluted to 0.83 micrograms/mL in Assay Buffer (PBS with 2 mM EDTA and 0.1% Bovine Serum Albumin). To 0.6 mL of the pMHC solutions in microcentrifuge tubes, […] Streptavidin-coated DynaBeads (M-280, ThermoFisher) were added. The beads were mixed in the pMHC solution for 4 minutes at 2,000 rpm on a ThermoMixer (Eppendorf). The pMHC-beads were then captured on a magnetic rack, and the solution containing unbound pMHC removed by aspiration. 1 mL of Assay Buffer was added to the tubes, and then aspirated. The beads were then resuspended in 0.1 mL of Assay Buffer. The beads were then stored at 4° C. until use. […]
Antibody binding to the beads was then detected on a FACSCelesta with High-Throughput Sampler (BD Biosciences). […] Approximately 25,000 bead events were recorded for each sample. The Median Fluorescence Intensity (MFI) in the APC channel for the pHLA-beads in each sample was then recorded. […] The half-lives for the pHLA complexes were then calculated from the fitted decay constant.

**Q.** With FLAIKKLYVG as the sequence, how does the exchange efficiency (HLA-A*02:01 [1]) read?
**A.** about 0.65

**Q.** For GAATKMAAV, which “suitability as in-place peptide (affinity and exchangeability)” value (HLA-A*02:01 [1]) is on record?
**A.** most suitable in-place peptides

**Q.** Which exchange efficiency (HLA-A*02:01 [1]) does the source give for GMGQKDSYV [ACTB (P60709) 46-54] here?
**A.** about 1.0

**Q.** And the “suitability as in-place peptide (affinity and exchangeability)” value (HLA-A*02:01 [1])?
**A.** most suitable in-place peptides

**Q.** With “LMYAKRAFV [TBA1A (Q71U36) 397-405; used as initial peptide and as incoming/displacing peptide]” as the sequence, how does the exchange efficiency (HLA-A*02:01 [1]) read?
**A.** about 0.30

**Q.** With “SLLPIMWQLY [Non-Immunogenic peptide antigen derived from TCL1] [listing 1 of 2 here]” as the sequence, how does the percent peptide switching (HLA-A*02:01 [2]) read?
**A.** about 90%

**Q.** “SLLPIMWQLY [Non-Immunogenic peptide antigen derived from TCL1] [listing 2 of 2 here]” was tested. Which “half-life of peptide-HLA-A*02:01 complex” value (HLA-A*02:01 [3]) did it give?
**A.** about 0.5 hours

**Q.** For “SLYSYFQKV [Immunogenic peptide antigen derived from SLC45A2] [listing 1 of 2 here]”, which percent peptide switching (HLA-A*02:01 [2]) is on record?
**A.** about 99%

**Q.** How did the “half-life of peptide-HLA-A*02:01 complex” value (HLA-A*02:01 [3]) turn out when “SLYSYFQKV [Immunogenic peptide antigen derived from SLC45A2] [listing 2 of 2 here]” was run?
**A.** about 17 hours
